Test results reported in PubChem BioAssay (NCI).
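Grown in 96-well plates, cells were treated for 48 hours with each compound at five concentrations. Insufficient inhibition: endpoint recorded as highest concentration tested. GI50: concentration for 50% inhibition of growth. TGI: total growth inhibition.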

How the values were obtained:
Experiment in all cases: NCI tumour cell line growth inhibition, 48 h
NCI-H522 lung = test system: NCI-H522 lung
LOX IMVI melanoma = test system: LOX IMVI melanoma
HCC-2998 colon = test system: HCC-2998 colon
HCT-15 colon = test system: HCT-15 colon
SF-268 CNS = test system: SF-268 CNS
OVCAR-8 ovarian = test system: OVCAR-8 ovarian
RXF 393 renal = test system: RXF 393 renal
MDA-MB-435 = test system: MDA-MB-435
MDA-MB-231 breast = test system: MDA-MB-231 breast
SK-MEL-2 melanoma = test system: SK-MEL-2 melanoma
EKVX NSCLC = test system: EKVX NSCLC
UACC-257 melanoma = test system: UACC-257 melanoma
DU-145 prostate = test system: DU-145 prostate
CCRF-CEM leukemia = test system: CCRF-CEM leukemia
SNB-19 CNS = test system: SNB-19 CNS
M14 melanoma = test system: M14 melanoma
A498 renal = test system: A498 renal
SK-MEL-5 melanoma = test system: SK-MEL-5 melanoma
OVCAR-5 ovarian = test system: OVCAR-5 ovarian
HOP-92 NSCLC = test system: HOP-92 NSCLC
SK-MEL-28 melanoma = test system: SK-MEL-28 melanoma
NCI-H460 lung = test system: NCI-H460 lung
ACHN renal = test system: ACHN renal
UACC-62 melanoma = test system: UACC-62 melanoma
IGROV1 ovarian = test system: IGROV1 ovarian
HT29 colon = test system: HT29 colon
HCT-116 colon = test system: HCT-116 colon
786-0 renal = test system: 786-0 renal
SNB-75 CNS = test system: SNB-75 CNS
SR leukemia = test system: SR leukemia
PC-3 prostate = test system: PC-3 prostate
NCI-H226 lung = test system: NCI-H226 lung
UO-31 renal = test system: UO-31 renal
SF-295 CNS = test system: SF-295 CNS
HS 578T breast = test system: HS 578T breast
COLO 205 colon = test system: COLO 205 colon
NCI/ADR-RES ovarian = test system: NCI/ADR-RES ovarian
BT-549 breast = test system: BT-549 breast
T-47D breast = test system: T-47D breast
SF-539 CNS = test system: SF-539 CNS
TK-10 renal = test system: TK-10 renal
SN12C renal = test system: SN12C renal
SW-620 colon = test system: SW-620 colon
NCI-H23 lung = test system: NCI-H23 lung
CAKI-1 renal = test system: CAKI-1 renal
RPMI-8226 leukemia = test system: RPMI-8226 leukemia
OVCAR-4 ovarian = test system: OVCAR-4 ovarian
U251 CNS = test system: U251 CNS
HL-60(TB) leukemia = test system: HL-60(TB) leukemia
MOLT-4 leukemia = test system: MOLT-4 leukemia
A549 NSCLC = test system: A549 NSCLC
MCF7 breast = test system: MCF7 breast
KM12 colon = test system: KM12 colon
K-562 leukemia = test system: K-562 leukemia
HOP-62 NSCLC = test system: HOP-62 NSCLC
SK-OV-3 ovarian = test system: SK-OV-3 ovarian
OVCAR-3 ovarian = test system: OVCAR-3 ovarian
MALME-3M melanoma = test system: MALME-3M melanoma

CN(C)c1nc(N)nc(CS)n1
TGI (NCI-H522 lung): > 100 µM | TGI (LOX IMVI melanoma): > 100 µM | TGI (HCC-2998 colon): > 100 µM | TGI (HCT-15 colon): > 100 µM | TGI (SF-268 CNS): > 100 µM | TGI (OVCAR-8 ovarian): > 100 µM | TGI (RXF 393 renal): > 100 µM | TGI (MDA-MB-435): > 100 µM | TGI (MDA-MB-231 breast): > 100 µM | TGI (SK-MEL-2 melanoma): > 100 µM | TGI (EKVX NSCLC): > 100 µM | TGI (UACC-257 melanoma): > 100 µM | TGI (DU-145 prostate): > 100 µM | TGI (CCRF-CEM leukemia): 98.9 µM | TGI (SNB-19 CNS): > 100 µM | TGI (M14 melanoma): > 100 µM | TGI (A498 renal): > 100 µM | TGI (SK-MEL-5 melanoma): > 100 µM | TGI (OVCAR-5 ovarian): > 100 µM | TGI (HOP-92 NSCLC): > 100 µM | TGI (SK-MEL-28 melanoma): > 100 µM | TGI (NCI-H460 lung): > 100 µM | TGI (ACHN renal): > 100 µM | TGI (UACC-62 melanoma): > 100 µM | TGI (IGROV1 ovarian): > 100 µM | TGI (HT29 colon): > 100 µM | TGI (HCT-116 colon): > 100 µM | TGI (786-0 renal): > 100 µM | TGI (SNB-75 CNS): > 100 µM | TGI (SR leukemia): > 100 µM | TGI (PC-3 prostate): > 100 µM | TGI (NCI-H226 lung): > 100 µM | TGI (UO-31 renal): > 100 µM | TGI (SF-295 CNS): > 100 µM | TGI (HS 578T breast): > 100 µM | TGI (COLO 205 colon): > 100 µM | TGI (NCI/ADR-RES ovarian): > 100 µM | TGI (BT-549 breast): > 100 µM | TGI (T-47D breast): > 100 µM | TGI (SF-539 CNS): > 100 µM | TGI (TK-10 renal): > 100 µM | TGI (SN12C renal): > 100 µM | TGI (SW-620 colon): > 100 µM | TGI (NCI-H23 lung): > 100 µM | TGI (CAKI-1 renal): > 100 µM | TGI (RPMI-8226 leukemia): > 100 µM | TGI (OVCAR-4 ovarian): > 100 µM | TGI (U251 CNS): > 100 µM | TGI (HL-60(TB) leukemia): 60.6 µM | TGI (MOLT-4 leukemia): > 100 µM | TGI (A549 NSCLC): > 100 µM | TGI (MCF7 breast): > 100 µM | TGI (KM12 colon): > 100 µM | TGI (K-562 leukemia): > 100 µM | TGI (HOP-62 NSCLC): > 100 µM | TGI (SK-OV-3 ovarian): > 100 µM | TGI (OVCAR-3 ovarian): > 100 µM

Cc1ccc(S(=O)(=O)c2c(COC(=O)c3cccc(C)c3)c(-c3ccccc3)nn2C)cc1
GI50 (NCI-H522 lung): > 100 µM | TGI (NCI-H522 lung): > 100 µM | GI50 (MALME-3M melanoma): > 100 µM | TGI (MALME-3M melanoma): > 100 µM | GI50 (LOX IMVI melanoma): > 100 µM | TGI (LOX IMVI melanoma): > 100 µM | GI50 (HCC-2998 colon): > 100 µM | TGI (HCC-2998 colon): > 100 µM | GI50 (HCT-15 colon): > 100 µM | TGI (HCT-15 colon): > 100 µM | GI50 (SF-268 CNS): > 100 µM | TGI (SF-268 CNS): > 100 µM | GI50 (OVCAR-8 ovarian): > 100 µM | TGI (OVCAR-8 ovarian): > 100 µM | GI50 (RXF 393 renal): > 100 µM | TGI (RXF 393 renal): > 100 µM | GI50 (MDA-MB-435): > 100 µM | TGI (MDA-MB-435): > 100 µM | GI50 (MDA-MB-231 breast): > 100 µM | TGI (MDA-MB-231 breast): > 100 µM | GI50 (UACC-257 melanoma): > 100 µM | TGI (UACC-257 melanoma): > 100 µM | GI50 (DU-145 prostate): > 100 µM | TGI (DU-145 prostate): > 100 µM | GI50 (CCRF-CEM leukemia): > 100 µM | TGI (CCRF-CEM leukemia): > 100 µM | GI50 (SNB-19 CNS): > 100 µM | TGI (SNB-19 CNS): > 100 µM | GI50 (M14 melanoma): > 100 µM | TGI (M14 melanoma): > 100 µM | GI50 (A498 renal): 29.5 µM | TGI (A498 renal): > 100 µM | GI50 (SK-MEL-5 melanoma): > 100 µM | TGI (SK-MEL-5 melanoma): > 100 µM | GI50 (OVCAR-5 ovarian): > 100 µM | TGI (OVCAR-5 ovarian): > 100 µM | GI50 (HOP-92 NSCLC): > 100 µM | TGI (HOP-92 NSCLC): > 100 µM | GI50 (SK-MEL-28 melanoma): > 100 µM | TGI (SK-MEL-28 melanoma): > 100 µM | GI50 (NCI-H460 lung): > 100 µM | TGI (NCI-H460 lung): > 100 µM | GI50 (ACHN renal): > 100 µM | TGI (ACHN renal): > 100 µM | GI50 (UACC-62 melanoma): 8.41 µM | TGI (UACC-62 melanoma): > 100 µM | GI50 (IGROV1 ovarian): > 100 µM | TGI (IGROV1 ovarian): > 100 µM | GI50 (HT29 colon): > 100 µM | TGI (HT29 colon): > 100 µM | GI50 (HCT-116 colon): > 100 µM | TGI (HCT-116 colon): > 100 µM | GI50 (786-0 renal): > 100 µM | TGI (786-0 renal): > 100 µM | GI50 (SNB-75 CNS): > 100 µM | TGI (SNB-75 CNS): > 100 µM | GI50 (SR leukemia): > 100 µM | TGI (SR leukemia): > 100 µM | GI50 (PC-3 prostate): > 100 µM | TGI (PC-3 prostate): > 100 µM | GI50 (NCI-H226 lung): > 100 µM | TGI (NCI-H226 lung): > 100 µM | GI50 (UO-31 renal): > 100 µM | TGI (UO-31 renal): > 100 µM | GI50 (SF-295 CNS): > 100 µM | TGI (SF-295 CNS): > 100 µM | GI50 (HS 578T breast): > 100 µM | TGI (HS 578T breast): > 100 µM | GI50 (COLO 205 colon): > 100 µM | TGI (COLO 205 colon): > 100 µM | GI50 (NCI/ADR-RES ovarian): > 100 µM | TGI (NCI/ADR-RES ovarian): > 100 µM | GI50 (BT-549 breast): > 100 µM | TGI (BT-549 breast): > 100 µM | GI50 (T-47D breast): 8.53 µM | TGI (T-47D breast): > 100 µM | GI50 (SF-539 CNS): > 100 µM | TGI (SF-539 CNS): > 100 µM | GI50 (TK-10 renal): > 100 µM | TGI (TK-10 renal): > 100 µM | GI50 (SN12C renal): > 100 µM | TGI (SN12C renal): > 100 µM | GI50 (SW-620 colon): > 100 µM | TGI (SW-620 colon): > 100 µM | GI50 (NCI-H23 lung): > 100 µM | TGI (NCI-H23 lung): > 100 µM | GI50 (CAKI-1 renal): > 100 µM | TGI (CAKI-1 renal): > 100 µM | GI50 (RPMI-8226 leukemia): > 100 µM | TGI (RPMI-8226 leukemia): > 100 µM | GI50 (OVCAR-4 ovarian): > 100 µM | TGI (OVCAR-4 ovarian): > 100 µM | GI50 (U251 CNS): > 100 µM | TGI (U251 CNS): > 100 µM | GI50 (HL-60(TB) leukemia): > 100 µM | TGI (HL-60(TB) leukemia): > 100 µM | GI50 (MOLT-4 leukemia): > 100 µM | TGI (MOLT-4 leukemia): > 100 µM | GI50 (A549 NSCLC): > 100 µM | TGI (A549 NSCLC): > 100 µM | GI50 (MCF7 breast): > 100 µM | TGI (MCF7 breast): > 100 µM | GI50 (KM12 colon): > 100 µM | TGI (KM12 colon): > 100 µM | GI50 (HOP-62 NSCLC): > 100 µM | TGI (HOP-62 NSCLC): > 100 µM | GI50 (SK-OV-3 ovarian): > 100 µM | TGI (SK-OV-3 ovarian): > 100 µM | GI50 (OVCAR-3 ovarian): > 100 µM | TGI (OVCAR-3 ovarian): > 100 µM
